Results: ChEMBL document CHEMBL2057086, “3-Bromo-3-deazaneplanocin and 3-bromo-3-deazaaristeromycin: synthesis and antiviral activity” (Bioorg Med Chem Lett, 2012)
Active and inactive are the calls of the source. The rule behind the calls is not given here.

Tests used:
SARS-CoV = test: Antiviral activity against SARS coronavirus infected in african green monkey Vero cells assessed as reduction of viral replication; format: functional, organism-based; details: Severe acute respiratory syndrome-related coronavirus
[1] = tested on: Respiratory syncytial virus; test: Antiviral activity against Respiratory syncytial virus infected in […] cells assessed as reduction of viral replication; format: functional, organism-based
Hepatitis C virus = test: Antiviral activity against Hepatitis C virus infected in human AVA5 cells assessed as reduction of viral replication; format: functional, organism-based; details: Hepacivirus hominis
[2] = Selectivity index, ratio of CC50 for HEL to EC50 Cytomegalovirus
[3] = Selectivity index, ratio of CC50 for african green monkey Vero cells to EC50 for Measles virus; format: toxicity, cell-based; details: read-out: Ratio CC50/EC50
Cytomegalovirus = test: Antiviral activity against Cytomegalovirus infected in HEL assessed as reduction of viral replication; format: functional, organism-based; details: Human betaherpesvirus 5
[4] = Selectivity index, ratio of CC50 for african green monkey Vero cells to EC50 for Yellow fever virus; format: toxicity, cell-based; details: read-out: Ratio CC50/EC50
Measles morbillivirus = test: Antiviral activity against Measles virus infected in african green monkey Vero cells assessed as reduction of viral replication; format: functional, organism-based
Yellow fever virus = test: Antiviral activity against Yellow fever virus infected in african green monkey Vero cells assessed as reduction of viral replication; format: functional, organism-based
[5] = Selectivity index, ratio of CC50 for african green monkey Vero cells to EC50 for Dengue virus; format: toxicity, cell-based; details: read-out: Selectivity Index
[6] = Selectivity index, ratio of minimum compound concentration required to cause microscopically detectable alteration of normal cell morphology for human HeLa cells to EC50 for Vaccinia virus; format: toxicity, cell-based; details: read-out: Selectivity Index
West Nile virus = test: Antiviral activity against West Nile virus infected in african green monkey Vero cells assessed as reduction of viral replication; format: functional, organism-based
[7] = tested on: Venezuelan equine encephalitis virus; test: Antiviral activity against Venezuelan equine encephalitis virus infected in african green monkey Vero cells assessed as reduction of viral replication; format: functional, organism-based
[8] = Selectivity index, ratio of CC50 for african green monkey Vero 76 cells to EC50 for Tacaribe virus; format: toxicity, cell-based; details: read-out: Selectivity Index
[9] = Selectivity index, ratio of CC50 for african green monkey Vero 76 cells to EC50 for Rift Valley fever virus; format: toxicity, cell-based; details: read-out: Selectivity Index
[10] = Cytotoxicity against human HeLa assessed as minimum compound concentration required to cause microscopically detectable alteration of normal cell morphology; format: cell-based; details: HeLa cells, read-out: Activity
[11] = Cytotoxicity against african green monkey Vero cells assessed as reduction of cell viability; format: cell-based; details: chlorocebus sabaeus
[12] = Cytotoxicity against african green monkey Vero 76 cells assessed as reduction of cell viability; format: cell-based; details: chlorocebus sabaeus
Vaccinia virus = test: Antiviral activity against Vaccinia virus infected in human HeLa cells assessed as reduction of viral replication; format: functional, organism-based; details: Orthopoxvirus vaccinia
Dengue virus = test: Antiviral activity against Dengue virus infected in african green monkey Vero cells assessed as reduction of viral replication; format: functional, organism-based
Tacaribe virus = test: Antiviral activity against Tacaribe virus infected in african green monkey Vero 76 cells assessed as reduction of viral replication; format: functional, organism-based; details: Mammarenavirus tacaribeense
Rift Valley fever virus = test: Antiviral activity against Rift Valley fever virus infected in african green monkey Vero 76 cells assessed as reduction of viral replication; format: functional, organism-based
[13] = Selectivity index, ratio of CC50 for MDCK cells to EC50 for Influenza B virus; format: toxicity, cell-based; details: dog, read-out: Ratio CC50/EC50
[14] = Selectivity index, ratio of CC50 for MDCK cells to EC50 for Influenza A virus H5N1; format: toxicity, cell-based; details: dog, read-out: Ratio CC50/EC50
[15] = Cytotoxicity against MDCK cells assessed as reduction of cell viability; format: cell-based, Canis lupus familiaris; details: dog
Influenza B virus = test: Antiviral activity against Influenza B virus infected in MDCK cells assessed as reduction of viral replication; format: functional, organism-based
Influenza A virus [16] = test: Antiviral activity against Influenza A virus H5N1 infected in MDCK cells assessed as reduction of viral replication; format: functional, organism-based
Influenza A virus [17] = test: Antiviral activity against Influenza A virus H3N2 infected in MDCK cells assessed as reduction of viral replication; format: functional, organism-based
Influenza A virus [18] = test: Antiviral activity against Influenza A virus H1N1 infected in MDCK cells assessed as reduction of viral replication; format: functional, organism-based
[19] = Cytotoxicity against HEL assessed as reduction of cell viability; format: cell-based; details: human, HEL cells
[20] = tested on: Mammalian orthoreovirus 1; test: Antiviral activity against Reovirus 1 infected in african green monkey Vero cells assessed as reduction of viral replication; format: functional, organism-based
Coxsackievirus B4 = test: Antiviral activity against Coxsackievirus B4 virus infected in african green monkey Vero cells assessed as reduction of viral replication; format: functional, organism-based
Sindbis virus = test: Antiviral activity against Sindbis virus infected in african green monkey Vero cells assessed as reduction of viral replication; format: functional, organism-based
Feline coronavirus = test: Antiviral activity against Feline coronavirus assessed as reduction of viral replication; format: functional, organism-based
Human alphaherpesvirus 2 = test: Antiviral activity against HSV-2 infected in HEL assessed as reduction of viral replication; format: functional, organism-based
Human alphaherpesvirus 1 = test: Antiviral activity against HSV-1 infected in HEL assessed as reduction of viral replication; format: functional, organism-based
[21] = Selectivity index, ratio of CC50 for african green monkey Vero cells to EC50 for Pichinde virus; format: toxicity, cell-based; details: read-out: Selectivity Index
[22] = Selectivity index, ratio of CC50 for african green monkey Vero cells to EC50 for Junin virus; format: toxicity, cell-based; details: read-out: Selectivity Index
[23] = Selectivity index, ratio of CC50 for human Akata cells to EC50 for Epstein-Barr virus; format: toxicity, cell-based; details: read-out: Selectivity Index
[24] = Selectivity index, ratio of CC50 for cat CRFK cells to EC50 for Feline herpesvirus; format: toxicity, cell-based; details: read-out: Selectivity Index
Cowpox virus = test: Antiviral activity against Cowpox virus infected in HFF cells assessed as reduction of viral replication; format: functional, organism-based
Hepatitis B virus = test: Antiviral activity against HBV infected in human HepG2(2.2.15) cells assessed as reduction of viral replication; format: functional, organism-based
[25] = Selectivity index, ratio of CC50 for african green monkey Vero 76 cells to EC50 for Punta Toro virus; format: toxicity, cell-based; details: read-out: Selectivity Index
[26] = Cytotoxicity against cat CRFK cells assessed as reduction of cell viability; format: cell-based, Felis catus
[27] = Cytotoxicity against african green monkey Vero cells assessed as minimum compound concentration required to cause microscopically detectable alteration of normal cell morphology; format: cell-based; details: chlorocebus sabaeus, read-out: Activity
[28] = Cytotoxicity against human Akata cells assessed as reduction of cell viability; format: cell-based
Felid alphaherpesvirus 1 = test: Antiviral activity against Feline herpesvirus infected in cat CRFK cells assessed as reduction of viral replication; format: functional, organism-based; details: Felid alphaherpesvirus 1, CRFK
Human respirovirus 3 = test: Antiviral activity against Parainfluenza-3 virus infected in african green monkey Vero cells assessed as reduction of viral replication; format: functional, organism-based; details: Human respirovirus 3, Vero
Human gammaherpesvirus 4 = test: Antiviral activity against Epstein-Barr virus infected in human Akata cells assessed as reduction of viral replication; format: functional, organism-based; details: human gammaherpesvirus 4, Akata
[29] = tested on: Vesicular stomatitis virus; test: Antiviral activity against Vesicular stomatitis virus infected in human HeLa cells assessed as reduction of viral replication; format: functional, organism-based
Junin virus = test: Antiviral activity against Junin virus infected in african green monkey Vero cells assessed as reduction of viral replication; format: functional, organism-based; details: Mammarenavirus juninense
Pichinde virus = test: Antiviral activity against Pichinde virus infected in african green monkey Vero cells assessed as reduction of viral replication; format: functional, organism-based
Punta Toro virus = test: Antiviral activity against Punta Toro virus infected in african green monkey Vero 76 cells assessed as reduction of viral replication; format: functional, organism-based
[30] = Selectivity index, ratio of CC50 for MDCK cells to EC50 for Influenza A virus H3N2; format: toxicity, cell-based; details: dog, read-out: Ratio CC50/EC50
[31] = Selectivity index, ratio of CC50 for MDCK cells to EC50 for Influenza A virus H1N1; format: toxicity, cell-based; details: dog, read-out: Ratio CC50/EC50

For `Nc1ncc(Br)c2c1ncn2[C@@H]1C[C@H](CO)[C@@H](O)[C@H]1O`, the Activity (SARS-CoV) was “inactive”, the Activity [1] was “inactive” and the Activity (Hepatitis C virus) was “inactive”. The “Ratio CC50/EC50” value [2] was 23, the selectivity ratio [3] was 4.3 and the EC50 (Cytomegalovirus) was 3500 nM. The selectivity ratio [4] was 9.7, the EC50 (Measles morbillivirus) was 16000 nM and the EC50 (Yellow fever virus) was 19000 nM. The selectivity ratio [5] was 2, the selectivity ratio [6] was > 1.3 and the Activity (West Nile virus) was “inactive”. The Activity [7] was “inactive”, the selectivity ratio [8] was 7.9 and the selectivity ratio [9] was > 5. The MCC [10] was > 300 µM, the CC50 [11] was 70000 nM and the CC50 [12] was > 79000 nM. The EC50 (Vaccinia virus) was 230000 nM, the EC50 (Dengue virus) was 93000 nM and the EC50 (Tacaribe virus) was 9900 nM. For the same compound, the EC50 (Rift Valley fever virus) was 58300 nM, the selectivity ratio [13] was > 340 and the selectivity ratio [14] was > 260. The CC50 [15] was > 290000 nM, the EC50 (Influenza B virus) was 840 nM and the EC50 (Influenza A virus [16]) was 1140 nM. For the same compound, the EC50 (Influenza A virus [17]) was > 290000 nM, the EC50 (Influenza A virus [18]) was > 290000 nM and the CC50 [19] was 80000 nM.

In the case of `Nc1ncc(Br)c2c1ncn2[C@@H]1C=C(CO)[C@@H](O)[C@H]1O`, the Activity [20] is reported as “inactive”, the Activity (Coxsackievirus B4) is reported as “inactive” and the Activity (Sindbis virus) is reported as “inactive”. The Activity (Feline coronavirus) was “inactive”, the Activity (Human alphaherpesvirus 2) was “inactive” and the Activity (Human alphaherpesvirus 1) was “inactive”. For the same compound, the selectivity ratio [21] was 24, the selectivity ratio [22] was 160 and the selectivity ratio [5] was 57. For the same compound, the selectivity ratio [23] was < 4.3, the selectivity ratio [24] was 470 and the Activity (West Nile virus) was “inactive”. The Activity (Cowpox virus) was “inactive”, the Activity (Hepatitis B virus) was “inactive” and the Activity [7] was “inactive”. The selectivity ratio [8] was > 2000, the selectivity ratio [25] was 140 and the selectivity ratio [9] was 250. The CC50 [26] was 94000 nM, the MCC [27] was > 100 µM and the CC50 [28] was 130 nM. For the same compound, the MCC [10] was ≥ 100 µM, the CC50 [11] was 15200 nM and the CC50 [12] was 23200 nM. The EC50 (Felid alphaherpesvirus 1) was 200 nM, the EC50 (Human respirovirus 3) was 500 nM and the EC50 (Human gammaherpesvirus 4) was > 30 nM. The EC50 [29] was 400 nM, the EC50 (Vaccinia virus) was 500 nM and the EC50 (Dengue virus) was 2900 nM. The EC50 (Junin virus) was 94 nM, the EC50 (Pichinde virus) was 1200 nM and the EC50 (Tacaribe virus) was < 94 nM. The EC50 (Punta Toro virus) was 250 nM, the EC50 (Rift Valley fever virus) was < 94 nM and the selectivity ratio [13] was < 7. For the same compound, the selectivity ratio [14] was > 310, the selectivity ratio [30] was > 190 and the selectivity ratio [31] was > 2340. The CC50 [15] was 1100 nM, the EC50 (Influenza B virus) was > 160 nM and the EC50 (Influenza A virus [16]) was 940 nM. For the same compound, the EC50 (Influenza A virus [17]) was 1550 nM and the EC50 (Influenza A virus [18]) was < 94 nM.
